Source: article PMC5902538, “Metabolic benefits of 1-(3-(4-(o-tolyl)piperazin-1-yl)propyl)pyrrolidin-2-one: a non-selective α-adrenoceptor antagonist” (Journal of Endocrinological Investigation, 2017)

What was measured:
Assay type in all cases: cell-based
α1A-adrenoceptor = target: T1, α1A-adrenoceptor (Homo sapiens, UniProt P35348); assay: intrinsic activity (antagonist) assay in ready-to-use cells stably expressing the receptor (Invitrogen)
T1 construct: gene ADRA1A
T1 sequence (P35348 1-466): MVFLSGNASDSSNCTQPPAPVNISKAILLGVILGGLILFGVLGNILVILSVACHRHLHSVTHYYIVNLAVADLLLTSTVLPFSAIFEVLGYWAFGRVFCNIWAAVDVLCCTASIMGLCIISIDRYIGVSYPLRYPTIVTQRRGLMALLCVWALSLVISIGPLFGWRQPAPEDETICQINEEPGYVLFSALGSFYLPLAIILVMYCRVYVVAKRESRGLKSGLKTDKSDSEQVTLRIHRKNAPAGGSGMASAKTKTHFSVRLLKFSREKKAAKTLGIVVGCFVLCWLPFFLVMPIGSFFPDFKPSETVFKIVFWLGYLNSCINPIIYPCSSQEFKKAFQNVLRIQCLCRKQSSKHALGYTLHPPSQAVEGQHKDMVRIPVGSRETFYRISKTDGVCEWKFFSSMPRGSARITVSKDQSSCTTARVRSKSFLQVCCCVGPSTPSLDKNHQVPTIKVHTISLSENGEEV

α2A-adrenoceptor = target: T2, α2A-adrenoceptor (Homo sapiens, UniProt P08913); assay: as above
T2 construct: gene ADRA2A
T2 sequence (P08913 1-465): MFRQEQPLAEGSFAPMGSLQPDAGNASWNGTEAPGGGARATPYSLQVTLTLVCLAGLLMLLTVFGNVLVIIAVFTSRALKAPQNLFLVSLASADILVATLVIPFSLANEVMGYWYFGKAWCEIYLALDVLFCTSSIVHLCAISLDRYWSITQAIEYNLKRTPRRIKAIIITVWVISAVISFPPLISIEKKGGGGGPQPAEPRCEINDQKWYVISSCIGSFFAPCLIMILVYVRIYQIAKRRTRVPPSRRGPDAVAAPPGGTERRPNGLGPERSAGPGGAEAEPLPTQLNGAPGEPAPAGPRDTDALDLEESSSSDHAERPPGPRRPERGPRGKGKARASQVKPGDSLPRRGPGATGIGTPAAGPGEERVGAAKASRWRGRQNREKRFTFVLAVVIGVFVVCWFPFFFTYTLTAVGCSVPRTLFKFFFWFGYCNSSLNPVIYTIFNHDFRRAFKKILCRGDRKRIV

α1B-adrenoceptor = target: T3, α1B-adrenoceptor (Homo sapiens, UniProt P35368); assay: intrinsic activity (antagonist) assay in ready-to-use cells stably expressing the receptor (Perkin Elmer)
T3 construct: gene ADRA1B
T3 sequence (P35368 1-520): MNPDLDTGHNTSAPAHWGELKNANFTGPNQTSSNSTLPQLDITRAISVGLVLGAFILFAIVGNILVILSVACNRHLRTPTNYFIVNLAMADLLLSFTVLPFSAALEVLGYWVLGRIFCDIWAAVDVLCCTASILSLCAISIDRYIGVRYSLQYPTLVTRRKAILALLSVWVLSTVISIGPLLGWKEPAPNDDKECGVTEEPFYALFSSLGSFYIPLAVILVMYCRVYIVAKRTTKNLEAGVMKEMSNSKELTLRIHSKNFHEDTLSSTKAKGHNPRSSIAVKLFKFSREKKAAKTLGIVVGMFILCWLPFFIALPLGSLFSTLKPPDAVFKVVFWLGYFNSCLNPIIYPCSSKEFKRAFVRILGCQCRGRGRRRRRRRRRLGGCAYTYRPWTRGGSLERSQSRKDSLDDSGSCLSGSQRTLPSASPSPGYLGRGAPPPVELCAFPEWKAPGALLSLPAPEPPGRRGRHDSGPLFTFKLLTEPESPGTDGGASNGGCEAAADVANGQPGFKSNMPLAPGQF

α2B-adrenoceptor = target: T4, α2B-adrenoceptor (Homo sapiens, UniProt P18089); assay: as above
T4 construct: gene ADRA2B
T4 sequence (P18089 1-450): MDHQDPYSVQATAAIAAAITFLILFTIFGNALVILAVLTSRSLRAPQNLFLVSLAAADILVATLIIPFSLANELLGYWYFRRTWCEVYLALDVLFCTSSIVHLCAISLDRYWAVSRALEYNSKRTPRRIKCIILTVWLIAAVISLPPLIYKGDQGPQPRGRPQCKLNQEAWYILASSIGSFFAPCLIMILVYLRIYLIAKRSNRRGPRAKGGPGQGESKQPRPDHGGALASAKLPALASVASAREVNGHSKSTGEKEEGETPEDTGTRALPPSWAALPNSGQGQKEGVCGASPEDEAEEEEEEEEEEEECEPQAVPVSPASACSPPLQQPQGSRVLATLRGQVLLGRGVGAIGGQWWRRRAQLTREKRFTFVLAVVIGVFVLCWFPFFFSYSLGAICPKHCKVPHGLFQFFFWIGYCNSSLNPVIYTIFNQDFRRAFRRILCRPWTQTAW

- IC50 (α1A-adrenoceptor): 42500 ± 11200 nM
- IC50 (α2A-adrenoceptor): 213 ± 32 nM
- IC50 (α1B-adrenoceptor): 32.6 ± 0.69 nM
- IC50 (α2B-adrenoceptor): 2070 ± 690 nM
SMILES: Cc1ccccc1N1CCN(CCCN2CCCC2=O)CC1 [EP-47, 1-(3-(4-(o-tolyl)piperazin-1-yl)propyl)pyrrolidin-2-one]
